Data on 16 compounds can be found in ChEMBL document CHEMBL1155399, “Novel glitazones: design, synthesis, glucose uptake and structure-activity relationships” (Bioorg Med Chem Lett, 2010).

Assay [1] is described as follows: Antidiabetic activity in Wistar rat hemidiaphragm assessed as glucose uptake at 2 mg after 45 mins by GOD/POD enzymatic method in absence of insulin. As to conditions: Diaphragm.
A short description of assay [2]: Antidiabetic activity in Wistar rat hemidiaphragm assessed as glucose uptake at 2 mg after 45 mins by GOD/POD enzymatic method in presence of insulin. As to conditions: Diaphragm.

Take `COc1cc(/C=C2/SC(=O)NC2=O)ccc1OCC(=O)Nc1ccccc1`: the Activity amounted to 12 mg/g in assay [1] and 28.5 mg/g in assay [2].

With `COc1ccc(NC(=O)COc2ccc(/C=C3/SC(=S)NC3=O)cc2OC)cc1`, the Activity worked out at 9.75 mg/g in assay [1] and 33.5 mg/g in assay [2].

As for `COc1cc(/C=C2/SC(=O)NC2=O)ccc1OCC(=O)Nc1ccccc1C(N)=O`, the results for the Activity in assay [1] and in assay [2] were 10 mg/g and 29 mg/g, respectively.

On to `COc1ccc(NC(=O)COc2ccc(CC3SC(=S)NC3=O)cc2OC)cc1` (configuration not stated), for which the figures for the Activity in assay [1] and in assay [2] were 9.5 mg/g and 28.2 mg/g, respectively.

For the compound `COc1cc(/C=C2/SC(=O)NC2=O)ccc1OCC(=O)NC1CCCCC1`, the Activity in assay [1] is 9.5 mg/g; in assay [2], 27.2 mg/g.

Consider `COc1cc(/C=C2/SC(=O)NC2=O)ccc1OCC(=O)Nc1ccccc1[N+](=O)[O-]`, for which the Activity was determined as 9.75 mg/g in assay [1] and 26.2 mg/g in assay [2].

As to `COc1cc(/C=C2/SC(=S)NC2=O)ccc1OCC(=O)NC1CCCCC1`, the Activity in assay [1] was determined as 11.8 mg/g; in assay [2], 30 mg/g.

With `COc1cc(/C=C2/SC(=S)NC2=O)ccc1OCC(=O)Nc1ccccn1`, the Activity in assay [1] worked out at 9.75 mg/g; in assay [2], 30 mg/g.

For the compound `COc1cc(/C=C2/SC(=O)NC2=O)ccc1OCC(=O)Nc1ccccn1`, the Activity is 12.2 mg/g in assay [1] and 32 mg/g in assay [2].

Turning to `COc1cc(/C=C2/SC(=O)NC2=O)ccc1OCC(=O)NCc1ccccc1`, the Activity in assay [1] is 10.5 mg/g; in assay [2], 31.8 mg/g.

With `CN(CCOc1ccc(CC2SC(=O)NC2=O)cc1)c1ccccn1` (configuration not stated), the Activity in assay [1] amounted to 11.2 mg/g; in assay [2], 35.2 mg/g.

As for `COc1cc(/C=C2/SC(=S)NC2=O)ccc1OCC(=O)Nc1ccccc1`, the values for the Activity in assay [1] and in assay [2] were 8 mg/g and 24.8 mg/g, respectively.

`COc1cc(/C=C2/SC(=S)NC2=O)ccc1OCC(=O)NCc1ccccc1`: the Activity in assay [1] came to 10.2 mg/g; in assay [2], 26.8 mg/g.

For the compound `COc1ccc(NC(=O)COc2ccc(/C=C3/SC(=O)NC3=O)cc2OC)cc1`, the Activity in assay [1] turned out to be 10.8 mg/g; in assay [2], 36.2 mg/g.

Take `COc1cc(/C=C2/SC(=S)NC2=O)ccc1OCC(=O)Nc1ccccc1[N+](=O)[O-]`: the Activity was found to be 9 mg/g in assay [1] and 25.5 mg/g in assay [2].

Consider `COc1ccc(NC(=O)COc2ccc(CC3SC(=O)NC3=O)cc2OC)cc1` (configuration not stated), for which the Activity in assay [1] is 11.2 mg/g; in assay [2] it was 30.2 mg/g.
